Data from the supplement of paper PMC11208160.

Test: recombinant barcode read abundance after kanamycin selection (control-corrected) (log10(CPM+1)); higher = more efficient recombination; sequences stand for … in AGTGCAGAGAAAATCGGCCAGTTTTCTCTGCCTGCAGTCCGCATGCCGT…AGATTTATGCAGCGGACTGCCTTTCTCCCAAAGTGATAAACCGGACAGTATCATGGACCGGTTTTCCCGGTAATCCGTATTTGCAAGGTTGGTTTCACT; site = the 11-nt target
Outline: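 Values are log10(CPM+1) from a pooled E. coli screen of targets paired with IS621 bridge RNA target-binding loops. Recombination efficiency here means counts per million of recombinant-junction barcodes, averaged and control-corrected. Plates were chloramphenicol/ampicillin LB agar for the control and chloramphenicol/ampicillin/kanamycin with 0.1 mM IPTG, two replicates each.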
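Also: IS621 recombinase and bridge RNA in Escherichia coli cells.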

First: GTCCTATCTTGGGTTCTAACCTGTTGCCA (site ACGGATCCTAT)
Second: GTCCTATCTTGGGTTCTAACCTGTTGCCA (site GTCCTATCTTG)
The “recombinant barcode read abundance (log10)” value of the first is lower: 0.0705 for the first, 0.66 for the second.

First: GTCGAACCTTGGGTTCTAACCTGTTGCTA (site GTCGAACCTTA)
Second: GTCGAACCTTGGGTTCTAACCTGTTGCTA (site GTCGTAGCTTA)
The “recombinant barcode read abundance (log10)” value of the first is higher: 1.79 for the first, 0.0873 for the second.

“GTCGCGCCTTGGGTTCTAACCTGTTGCCT (site GTCGCGACTAG)” and “GTCGCGCCTTGGGTTCTAACCTGTTGCCT (site GTCGCGCCTAG)” are within 0.2 log units of each other in “recombinant barcode read abundance (log10)” value: 0.221 for the first, 0.271 for the second.

Compared with “GTCGCGCCTTGGGTTCTAACCTGTTGCCT (site GTCGCGGCTAG)”, “GTCGCGCCTTGGGTTCTAACCTGTTGCCT (site GTCGCGTCTAG)” is higher in “recombinant barcode read abundance (log10)” value: 0.219 for the first, 0.58 for the second.

First: GTCGGAACTTGGGTTCTAACCTGTTGCCT (site GTCGGAACTAG)
Second: GTCGGAACTTGGGTTCTAACCTGTTGCCT (site GTCGGCACTAG)
The “recombinant barcode read abundance (log10)” value of the first is higher: 1.73 for the first, 0.329 for the second.

“GTCGGAACTTGGGTTCTAACCTGTTGCCT (site GTCGGGACTAG)” and “GTCGGAACTTGGGTTCTAACCTGTTGCCT (site GTCGGTACTAG)” are within 0.2 log units of each other in “recombinant barcode read abundance (log10)” value: 0.174 for the first, 0.0137 for the second.

“GTCGGTACTTGGGTTCTAACCTGTTGCCT (site GTCGGAACTAG)” and “GTCGGTACTTGGGTTCTAACCTGTTGCCT (site GTCGGCACTAG)” are within 0.2 log units of each other in “recombinant barcode read abundance (log10)” value: 0.115 for the first, 0.0645 for the second.

First: GTCGGTACTTGGGTTCTAACCTGTTGCCT (site GTCGGGACTAG)
Second: GTCGGTACTTGGGTTCTAACCTGTTGCCT (site GTCGGTACTAG)
The “recombinant barcode read abundance (log10)” value of the first is lower: 0.0319 for the first, 0.952 for the second.

First: GTCGTCACTTGGGTTCTAACCTGTTGCCT (site GTCGTCACTAG)
Second: GTCGTCACTTGGGTTCTAACCTGTTGCCT (site GTCGTCCCTAG)
The “recombinant barcode read abundance (log10)” value of the first is higher: 0.334 for the first, 0.0716 for the second.

“GTCGTCACTTGGGTTCTAACCTGTTGCCT (site GTCGTCGCTAG)” and “GTCGTCACTTGGGTTCTAACCTGTTGCCT (site GTCGTCTCTAG)” are within 0.2 log units of each other in “recombinant barcode read abundance (log10)” value: 0.15 for the first, 0.0772 for the second.

Compared with “GTCGTCCCTTGGGTTCTAACCTGTTGCCT (site GTCGTCACTAG)”, “GTCGTCCCTTGGGTTCTAACCTGTTGCCT (site GTCGTCCCTAG)” is higher in “recombinant barcode read abundance (log10)” value: 0.0509 for the first, 0.315 for the second.

“GTCGTCCCTTGGGTTCTAACCTGTTGCCT (site GTCGTCGCTAG)” and “GTCGTCCCTTGGGTTCTAACCTGTTGCCT (site GTCGTCTCTAG)” are within 0.2 log units of each other in “recombinant barcode read abundance (log10)” value: 0.0602 for the first, 0.0914 for the second.

First: GTCGTCTCTTGGGTTCTAACCTGTTGCCT (site GTCGTCACTAG)
Second: GTCGTCTCTTGGGTTCTAACCTGTTGCCT (site GTCGTCCCTAG)
The “recombinant barcode read abundance (log10)” value of the first is lower: 0.0143 for the first, 0.463 for the second.

Compared with “GTCGTCTCTTGGGTTCTAACCTGTTGCCT (site GTCGTCGCTAG)”, “GTCGTCTCTTGGGTTCTAACCTGTTGCCT (site GTCGTCTCTAG)” is higher in “recombinant barcode read abundance (log10)” value: 0.136 for the first, 1.65 for the second.

“GTCGTTACTTGGGTTCTAACCTGTTGCCT (site GTCGTTACTAG)” and “GTCGTTACTTGGGTTCTAACCTGTTGCCT (site TAGCAATCTTA)” are within 0.2 log units of each other in “recombinant barcode read abundance (log10)” value: 0.339 for the first, 0.22 for the second.

Going from “GTCGTTCCTTGGGTTCTAACCTGTTGCCT (site GTAGTTCCTAG)” to “GTCGTTCCTTGGGTTCTAACCTGTTGCCT (site GTCGTTCCTAG)”, the “recombinant barcode read abundance (log10)” value falls from 0.535 to 0.153.

First: GTCTAGGCTTGGGTTCTAACCTGTTGCTG (site GCCGAGGCTCA)
Second: GTCTAGGCTTGGGTTCTAACCTGTTGCTG (site GTCTAGGCTCA)
The “recombinant barcode read abundance (log10)” value of the first is lower: 0.242 for the first, 0.876 for the second.

Compared with “GTCTATACTTGGGTTCTAACCTGTTGCCA (site GTCTATACTTG)”, “GTCTATACTTGGGTTCTAACCTGTTGCCA (site TTCTAGACTTG)” is lower in “recombinant barcode read abundance (log10)” value: 0.571 for the first, 0.0838 for the second.

First: GTCTATACTTGGGTTCTAACCTGTTGCCT (site GTATATACTAG)
Second: GTCTATACTTGGGTTCTAACCTGTTGCCT (site GTCTATACTAG)
The “recombinant barcode read abundance (log10)” value of the first is lower: 0.168 for the first, 0.987 for the second.

Going from “GTCTATACTTGGGTTCTAACCTGTTGCCT (site GTGTATACTAG)” to “GTCTATACTTGGGTTCTAACCTGTTGCCT (site GTTTATACTAG)”, the “recombinant barcode read abundance (log10)” value rises from 0.0645 to 0.311.

“GTCTATGCTTGGGTTCTAACCTGTTGCGT (site GTCTAAGCTAA)” and “GTCTATGCTTGGGTTCTAACCTGTTGCGT (site GTCTATGCTAC)” are within 0.2 log units of each other in “recombinant barcode read abundance (log10)” value: 0.0746 for the first, 0.0203 for the second.

Compared with “GTCTCCTCTTGGGTTCTAACCTGTTGCCT (site GTCACCTCTAG)”, “GTCTCCTCTTGGGTTCTAACCTGTTGCCT (site GTCCCCTCTAG)” is higher in “recombinant barcode read abundance (log10)” value: 0.0265 for the first, 2.26 for the second.

First: GTCTCCTCTTGGGTTCTAACCTGTTGCCT (site GTCGCCTCTAG)
Second: GTCTCCTCTTGGGTTCTAACCTGTTGCCT (site GTCTCCTCTAG)
The “recombinant barcode read abundance (log10)” value of the first is lower: 0.0306 for the first, 1.62 for the second.

“GTCTCTACTTGGGTTCTAACCTGTTGCCT (site GCCTCTTCTAG)” and “GTCTCTACTTGGGTTCTAACCTGTTGCCT (site GTCTCTACTAG)” are within 0.2 log units of each other in “recombinant barcode read abundance (log10)” value: 0.0271 for the first, 0.221 for the second.

Compared with “GTGAACTCTTGGGTTCTAACCTGTTGCTG (site GTGAACTCTCA)”, “GTGAACTCTTGGGTTCTAACCTGTTGCTG (site GTGATCCCTCA)” is lower in “recombinant barcode read abundance (log10)” value: 2.33 for the first, 0.0703 for the second.

Compared with “GTGACTGCTTGGGTTCTAACCTGTTGCGT (site CACTAGACTCG)”, “GTGACTGCTTGGGTTCTAACCTGTTGCGT (site GTGACTGCTAC)” is higher in “recombinant barcode read abundance (log10)” value: 0.0198 for the first, 1.46 for the second.

Going from “GTGAGGTCTTGGGTTCTAACCTGTTGCAT (site GTGAGGTCTAA)” to “GTGAGGTCTTGGGTTCTAACCTGTTGCAT (site GTGAGGTCTAC)”, the “recombinant barcode read abundance (log10)” value rises from 0.46 to 0.709.

Compared with “GTGAGGTCTTGGGTTCTAACCTGTTGCAT (site GTGAGGTCTAG)”, “GTGAGGTCTTGGGTTCTAACCTGTTGCAT (site GTGAGGTCTAT)” is higher in “recombinant barcode read abundance (log10)” value: 0.375 for the first, 2.71 for the second.

Compared with “GTGAGGTCTTGGGTTCTAACCTGTTGCGT (site GTGAGGTCTAA)”, “GTGAGGTCTTGGGTTCTAACCTGTTGCGT (site GTGAGGTCTAC)” is higher in “recombinant barcode read abundance (log10)” value: 0.231 for the first, 2.08 for the second.

Going from “GTGAGGTCTTGGGTTCTAACCTGTTGCGT (site GTGAGGTCTAG)” to “GTGAGGTCTTGGGTTCTAACCTGTTGCGT (site GTGAGGTCTAT)”, the “recombinant barcode read abundance (log10)” value rises from 0.586 to 1.69.

Going from “GTGCAAACTTGGGTTCTAACCTGTTGCCT (site GTGCAAACTAG)” to “GTGCAAACTTGGGTTCTAACCTGTTGCCT (site GTGCACACTTG)”, the “recombinant barcode read abundance (log10)” value falls from 1.23 to 0.0968.

“GTGCTTACTTGGGTTCTAACCTGTTGCCT (site GAGCTTACTAG)” and “GTGCTTACTTGGGTTCTAACCTGTTGCCT (site GCGCTTACTAG)” are within 0.2 log units of each other in “recombinant barcode read abundance (log10)” value: 0.0771 for the first, 0.0397 for the second.

Going from “GTGCTTACTTGGGTTCTAACCTGTTGCCT (site GGGCTTACTAG)” to “GTGCTTACTTGGGTTCTAACCTGTTGCCT (site GTGCTTACTAG)”, the “recombinant barcode read abundance (log10)” value rises from 0.0436 to 0.538.
